Laboratory results from US9944598B2, “Mono- or di-substituted indole derivatives as dengue viral replication inhibitors” (priority 2014, dated 2018).

Experiments:
Type in all cases: cell-based
[1] = tested on: DENV-4 strain H241; assay: Tetravalent RT-qPCR assay Protocol A, serotype 4 H241; settings: Dengue virus, DENV4, 72 h, RT-qPCR serotype 4 H241, Vero cells, 3 days
Description: The antiviral activity of the compounds of the invention was tested against DENV-1 strain TC974#666 (NCPV), DENV-2 strain 16681, DENV-3 strain H87 (NCPV) and DENV-4 strains H241 (NCPV) and EDEN (SG/06K2270DK1/2005; GenBank accession number QG398256) in a RT-qPCR assay. Therefore, Vero cells were infected with either DENV-1, or -2, or -3, or -4 in the presence or absence of test compounds. At day 3 post-infection, the cells were lysed and cell lysates were used to prepare cDNA of both a viral target (the 3′UTR of DENV; table 2) and a cellular reference gene (β-actin, table 2). Subsequently, a duplex real time PCR was performed on a Lightcycler480 instrument. The generated Cp value is inversely proportional to the amount of RNA expression of these targets. Inhibition of DENV replication by a test compound result in a shift of Cp's for the 3′UTR gene. On the other hand, if a test compound is toxic to the cells, a similar effect on β-actin expression will be observed. The comparative ΔΔCp method is used to calculate EC50, which is based on the relative gene expression of the target gene (3′UTR) normalized with the cellular housekeeping gene (β-actin). In addition, CC50 values were determined based on the Cp values acquired for the housekeeping gene β-actin.
The culture medium consisted of minimal essential medium supplemented with 2% of heat-inactivated fetal calf serum, 0.04% gentamycin (50 mg/mL) and 2 mM of L-glutamine. Vero cells, obtained from ECACC, were suspended in culture medium and 75 μL/well was added in 96-well plates (10000 cells/well), which already contain the antiviral compounds. Typically, these plates contain a 4-fold serial dilution of 9 dilution steps of the test compound at 200 times the final concentration in 100% DMSO (500 nL; final concentration range: 25 μM-0.00038 μM). In addition, each plate contains wells which are assigned as virus controls (containing cells and virus in the absence of compound) and cell controls (containing cells in the absence of virus and compound). Once the cells were added in the plates, the plates were incubated in a fully humidified incubator (37° C., 5% CO2) until the next day. Then, DENV-1 strain TC974#666, DENV-2 strain 16681, DENV-3 strain H87 or DENV-4 strains H241 or EDEN were added. […] In parallel, 25 μL of culture medium was added to the cell controls. Next, the plates were incubated for 3 days in a fully humidified incubator (37° C., 5% CO2). After 3 days, the supernatant was removed from the wells and the cells were washed twice with ice-cold PBS (˜100 μL). The cell pellets within the 96-well plates were stored at −80° C. for at least 1 day. Next, RNA was extracted using the Cells-to-CT™ lysis kit, according to the manufacture's guideline (Applied Biosystems). The cell lysates can be stored at −80° C. or immediately used in the reverse transcription step.
In preparation of the reverse transcription step, mix A (table 3A) was prepared and 7.57 μL/well was dispensed in a 96-well plate. After addition of 5 μL of the cell lysates, a five minute denaturation step at 75° C. was performed (table 3B). Afterwards, 7.43 μL of mix B was added (table 3C) and the reverse transcription step was initiated (table 3D) to generate cDNA.
Finally, a RT-qPCR mix was prepared, mix C (table 4A), dispensed in 96-well LightCycler qPCR plates to which 3 μL of cDNA was added and the qPCR was performed according to the conditions in table 4B on a LightCycler 480.
Using the LightCycler software and an in-house LIMS system, dose response curves for each compound were calculated and the half maximal effective concentration (EC50) and the half maximal cytotoxic concentration (CC50) were determined (Tables 6-9).

[2] = in vitro; settings: African green monkey, CC50
Description: (§1) Potential cytotoxic effects of the compounds were evaluated in uninfected Vero cells. Cells were seeded at 4×10^4 cells/well in a 96-well plate in the presence of two-, three- or five-fold serial dilutions (ranging from 50 μg/mL-0.0038 μg/mL, 50 μg/mL-0.0076 μg/mL, and 50 μg/mL-0.00013 μg/mL, respectively) of compound and incubated for 4 to 7 days. Culture medium was discarded and 100 μL 3-(4,5-dimethylthiazol-2-yl)-5-(3-carboxymethoxyphenyl)-2-(4-sulfophenyl)-2H-tetrazolium/phenazinemethosulfate (MTS/PMS; Promega, Leiden, The Netherlands) in PBS was added to each well. Following a 2-hour incubation period at 37° C., the optical density was determined at 498 nm. Cytotoxic activity was calculated using the following formula: % cell viability=100×(ODCompound/ODCC), where ODCompound and ODCC correspond to the optical density at 498 nm of the uninfected cell cultures treated with compound and that of uninfected, untreated cell cultures, respectively. The 50% cytotoxic concentration (i.e., the concentration that reduces the total cell number with 50%; CC50) was calculated using linear interpolation (Tables 7 and 8).

[3] = tested on: uninfected Vero cells; assay: in vitro; settings: African green monkey
Description: as §1

SMILES | EC50 [1] | CC50 [2] | CC50 [3]
COc1cc(NC(C(=O)c2c[nH]c3cc(F)ccc23)c2ccc(Cl)cc2OC)cc(OCCO)c1 (single isomer, unassigned) [Compound 1A, 2-(4-chloro-2-methoxyphenyl)-1-(6-fluoro-1H-indol-3-yl)-2-((3-(2-hydroxyethoxy)-5-methoxyphenyl)amino)ethanone] | 0.24 µM | 9.7 µM | 14 µM
COc1cc(NC(C(=O)c2c[nH]c3c(C)c(F)ccc23)c2ccc(Cl)cc2OC)cc(OCCO)c1 (single isomer, unassigned) [Compound 2A, 2-(4-chloro-2-methoxyphenyl)-1-(6-fluoro-7-methyl-1H-indol-3-yl)-2-((3-(2-hydroxyethoxy)-5-methoxyphenyl)amino)ethanone] | 0.26 µM | 7.4 µM | 13 µM
COc1cc(NC(C(=O)c2c[nH]c3c(C)c(Cl)ccc23)c2ccc(Cl)cc2OC)cc(OCCO)c1 (single isomer, unassigned) [Compound 3A, 2-(4-chloro-2-methoxyphenyl)-1-(6-chloro-7-methyl-1H-indol-3-yl)-2-((3-(2-hydroxyethoxy)-5-methoxyphenyl)amino)ethanone] | 0.18 µM | 7.7 µM | 12 µM
COc1cc(NC(C(=O)c2c[nH]c3cc(Cl)ccc23)c2ccc(Cl)cc2OC)cc(OCCO)c1 (single isomer, unassigned) [Compound 4A, 1-(6-chloro-1H-indol-3-yl)-2-(4-chloro-2-methoxyphenyl)-2-((3-(2-hydroxyethoxy)-5-methoxyphenyl)amino)ethanone] | 0.24 µM | 9.5 µM | 13 µM
COc1cc(NC(C(=O)c2c[nH]c3cc(OC)ccc23)c2ccc(Cl)cc2OC)cc(OCCO)c1 (single isomer, unassigned) [Compound 5A, 2-(4-chloro-2-methoxyphenyl)-2-((3-(2-hydroxyethoxy)-5-methoxyphenyl)amino)-1-(6-methoxy-1H-indol-3-yl)ethanone] | 0.32 µM | 7.8 µM | 11 µM
COc1cc(NC(C(=O)c2c[nH]c3cc(OC)c(C)cc23)c2ccc(Cl)cc2OC)cc(OCCO)c1 (single isomer, unassigned) [Compound 6A, 2-(4-chloro-2-methoxyphenyl)-2-((3-(2-hydroxyethoxy)-5-methoxyphenyl)amino)-1-(6-methoxy-5-methyl-1H-indol-3-yl)ethanone] | 0.084 µM | 8.1 µM | 13 µM
COc1cc(NC(C(=O)c2c[nH]c3cc(OC)c(F)cc23)c2ccc(Cl)cc2OC)cc(OCCO)c1 (single isomer, unassigned) [Compound 7A, 2-(4-chloro-2-methoxyphenyl)-1-(5-fluoro-6-methoxy-1H-indol-3-yl)-2-((3-(2-hydroxyethoxy)-5-methoxyphenyl)amino)ethanone] | 0.23 µM | 7.2 µM | 12 µM
COc1cc(NC(C(=O)c2c[nH]c3c(C)cc(F)cc23)c2ccc(Cl)cc2OC)cc(OCCO)c1 (single isomer, unassigned) [Compound 8A, 2-(4-chloro-2-methoxyphenyl)-1-(5-fluoro-7-methyl-1H-indol-3-yl)-2-((3-(2-hydroxyethoxy)-5-methoxyphenyl)amino)ethanone] | 0.3 µM | 7.7 µM | 11 µM
COc1cc(NC(C(=O)c2c[nH]c3cc(F)c(F)cc23)c2ccc(Cl)cc2OC)cc(OCCO)c1 (single isomer, unassigned) [Compound 9A, 2-(4-chloro-2-methoxyphenyl)-1-(5,6-difluoro-1H-indol-3-yl)-2-((3-(2-hydroxyethoxy)-5-methoxyphenyl)amino)ethanone] | 0.24 µM | 7.9 µM | 12 µM
COc1cc(NC(C(=O)c2c[nH]c3c(F)cc(C)cc23)c2ccc(Cl)cc2OC)cc(OCCO)c1 (single isomer, unassigned) [Compound 10A, 2-(4-chloro-2-methoxyphenyl)-1-(7-fluoro-5-methyl-1H-indol-3-yl)-2-((3-(2-hydroxyethoxy)-5-methoxyphenyl)amino)ethanone] | 0.32 µM | 8 µM | 12 µM
COc1cc(NC(C(=O)c2c[nH]c3c(F)c(F)ccc23)c2ccc(Cl)cc2OC)cc(OCCO)c1 (single isomer, unassigned) [Compound 11B, 2-(4-chloro-2-methoxyphenyl)-1-(6,7-difluoro-1H-indol-3-yl)-2-((3-(2-hydroxyethoxy)-5-methoxyphenyl)amino)ethanone] | 0.35 µM | 7.7 µM | 11 µM
